From patent US20200256877A1, “Microbiota Sequence Variants Of Tumor-Related Antigenic Epitopes” (ENTEROME S.A., priority 2017, published 2020)

Columns and labels:
[1] = system: U87 cells; assay: In vitro cytotoxicity of CD3+ T cells from immunized mice against U87-MG cells (Example 7); format: cell-based, human; conditions: CD3+ T cells of HHD/DR3 mice immunized with labelled peptide, 72 hours co-culture with U87-MG, annexin V/DAPI
Method: Briefly, […] T cells from mice immunized with IL13RA2-H or […] were used. These cells were obtained after sorting of splenocyte from immunized mice and were placed on top of U87 cells (tumor cells expressing IL13RA2).
In more detail, CD3^+ T cells were purified from splenocytes of HHD mice immunized with IL13RA2-H (WLPFGFILI, SEQ ID NO: 1) or IL13RA2-B (FLPFGFILV, SEQ ID NO: 18). To this end, B6 β2m^ko HHD/DR3 mice were injected s.c. at tail base with 100 μL of an oil-based emulsion containing vaccination peptide plus helper peptide plus CFA (complete Freund's adjuvant), at day 0 and day 14 as described in Example 6. On d21, i.e. seven days after the boost injection, the animals were euthanized and the spleen was harvested. Splenocytes were prepared by mechanical disruption of the organ. CD3+ purification was performed using the mouse total T cells isolation kit from Miltenyi biotec using the recommended procedure. Efficient purification of cells and viability was validated by cytometry using appropriate marker for viability, CD8, CD4, CD3, and CD45. […]
72 hours after co-culture of U87-MG cells and CD3+ T cells, all cells from the wells were harvested and specific U87-MG cell death was evaluated after immunostaining of CD45 negative cells with DAPI and fluorescent annexin V followed by cytometry analysis.

[2] = system: splenocytes (IFNγ secretion); assay: ELISPOT-IFNγ on splenocytes of β/A2/DR3 mice vaccinated with IL13RA2 peptides (Example 6); format: in vivo, mouse; conditions: for Percentage of ConA-induced response (mean+/-SEM), ELISPOT-IFNγ: β/A2/DR3 mice vaccinated s.c. d0 and d14 with labelled peptide (100 μg) + HHD-DR3 helper + IFA, d21
Excerpt: Briefly, 14 β/A2/DR3 mice were assigned randomly (based on mouse sex and age) to two experimental groups, each immunized with a specific vaccination peptide (vacc-pAg) combined to a common helper peptide (h-pAg) (as outlined in Table 7 below). The vacc-pAg were compared in couples (group 1 vs. group 2). Thereby, both native and optimized versions of a single peptide were compared in each wave.
(§1) The animals were immunized on day 0 (d0) with a prime injection, and on d14 with a boost injection. Each mouse was injected s.c. at tail base with 100 μL of an oil-based emulsion that contained: • 100 μg of vacc-pAg (25 μL of 4 mg/mL stock per mouse); • 150 μg of h-pAg (15 μL of 10 mg/mL stock per mouse); • 10 μL of PBS to reach a total volume of 50 μL (per mouse); • Incomplete Freund's Adjuvant (IFA) added at 1:1 (v:v) ratio (50 μL per mouse).
(§2) Seven days after the boost injection (i.e. on d21), the animals were euthanized and the spleen was harvested. Splenocytes were prepared by mechanical disruption of the organ followed by 70 μm-filtering and Ficoll density gradient purification.
The splenocytes were immediately used in an ELISPOT-IFNγ assay (Table 8). Experimental conditions were repeated in quadruplets, using 2*10^5 total splenocytes per well, and were cultured in presence of vacc-pAg (10 μM), Concanavalin A (ConA, 2.5 μg/mL) or medium-only to assess for their capacity to secrete IFNγ. The commercial ELISPOT-IFNγ kit (Diaclone Kit Mujrine IFNγ ELISpot) was used following the manufacturer's instructions, and the assay was performed after about 16 h of incubation.
Spots were counted on a Grand ImmunoSpot® S6 Ultimate UV Image Analyzer interfaced to the ImmunoSpot 5.4 software (CTL-Europe). Data plotting and statistical analysis were performed with the Prism-5 software (GraphPad Software Inc.).
The data were then normalized as a number of specific spots (the average counts obtained in the ‘medium only’ condition being subtracted) per 10^6 total T cells.
The individual average values (obtained from the quadruplicates) were next used to plot the group average values (see FIG. 3A). As the functional capacity of T cells might vary from individual to individual, the data were also expressed as the percentage of the ConA response per individual (see FIG. 3B).

[3] = system: splenocytes (IFNγ secretion); assay: ELISPOT-IFNγ on splenocytes of BALB/c and C57BL/6 mice vaccinated with murine microbiota peptides (Example 16); format: in vivo, mouse; conditions: for T cell responses in the ELISPOT-IFNγ assay (in words): C57BL/6 mice (H2 Db B2) or BALB/c mice (H2 Ld B5), vaccination + OVA 323-339 + IFA, ex vivo stimulation with bacterial peptide; for T cell responses in the ELISPOT-IFNγ assay against the murine reference epitopes (in words): ex vivo stimulation with H2 Db M2 (C57BL/6) or H2 Ld M5 (BALB/c)
Method: Briefly, BALB/c mice and C57BL/6 mice were assigned randomly to two experimental groups for each mouse strain, each group immunized with a specific vaccination peptide (vacc-pAg) combined to a common helper peptide (OVA 323-339 peptide; sequence: ISQAVHAAHAEINEAGR; SEQ ID NO: 164) and Incomplete Freund's Adjuvant (IFA) as shown in Table 23.
as §1
as §2, with “purification. Spleen weight, splenocyte number and viability were immediately assessed (Table 24).” for “purification.”
The splenocytes were used in an ELISPOT-IFNγ assay (Table X). Experimental conditions were repeated in quadruplets, using 2*10^5 total splenocytes per well, and were cultured in presence of vacc-pAg (10 μM), mice peptide homolog, positive control (1 ng/ml of Phorbol 12-myristate 13-acetate (PMA) and 500 ng/ml of Ionomycin) or medium-only to assess for their capacity to secrete IFNγ.
The commercial ELISPOT-IFNγ kit (Diaclone Kit Mujrine IFNγ ELISpot) was used following the manufacturer's instructions, and the assay was performed after about 16 h of incubation.
Spots were counted on a Grand ImmunoSpor S6 Ultimate UV Image Analyzer interfaced to the ImmunoSpot 5.4 software (CTL-Europe). Data plotting and statistical analysis were performed with the Prism-5 software (GraphPad Software Inc.).

[4] = molecular target: T1, HLA-A*0201 (Homo sapiens, UniProt P04439, D140Y/D185E/D98H/E176V/E277Q/G131W/G231S/I119V/I121R/I166T/I218V/L300P/L318F/N151K/N90K/P208A/P217A/Q86G/Q94H/R138H/R169H/T345S); assay: In vitro affinity of peptides to HLA-A*0201 on T2 cell line (FACS, anti-HLA-A2 labeling); format: cell-based; conditions: T2 cells; for Mean fluorescence intensity: 16 hours
T1 construct: human tumoral cell T2 which expresses the HLA-A*0201 molecule; endogenous in cells; host or cells: T2 cells (human, TAP1/2 negative)
Excerpt: A method for in vitro testing is well-known to the skilled person. For example, the skilled person may use the experimental protocol as validated for peptides presented by HLA-A*0201 in Tourdot et al., A general strategy to enhance immunogenicity of low-affinity HLA-A2.1-associated peptides: implication in the identification of cryptic tumor epitopes. Eur J Immunol. 2000 December; 30(12):3411-21. In this context, a reference peptide, such as HIV pol 589-597, may be additionally used in the test. This enables calculation of the in vitro affinity relative to the binding observed with the reference peptide, e.g. by the following equation:
Relative affinity=concentration of each peptide inducing 20% of expression of HLA-A*0201/concentration of the reference peptide inducing 20% of expression of HLA-A*0201
(where 100% is the level of HLA-A*0201 expression detected with the reference peptide, e.g. HIV pol 589-597, for example used at a 100 μM concentration).
The experimental protocol is similar to the one that was validated for peptides presented by the HLA-A*0201 (Tourdot et al., A general strategy to enhance immunogenicity of low-affinity HLA-A2.1-associated peptides: implication in the identification of cryptic tumor epitopes. Eur J Immunol. 2000 December; 30(12):3411-21). Affinity measurement of the peptides is achieved with the human tumoral cell T2 which expresses the HLA-A*0201 molecule, but which is TAP1/2 negative and incapable of presenting endogenous peptides.
(§3) T2 cells (2.10^5 cells per well) were incubated with decreasing concentrations of peptides from 100 μM to 0.1 μM in a AIMV medium supplemented with 100 ng/μl of human β2m at 37° C. for 16 hours. Cells were then washed two times and marked with the anti-HLA-A2 antibody coupled to PE (clone BB7.2, BD Pharmagen).
The analysis was performed by FACS (Guava Easy Cyte). For each peptide concentration, the geometric mean of the labeling associated with the peptide of interest was subtracted from background noise and reported as a percentage of the geometric mean of the […] labeling obtained for the reference peptide HIV pol 589-597 at a concentration of 100 μM. The relative affinity is then determined as follows:
relative affinity=concentration of each peptide inducing 20% of expression of HLA-A*0201/concentration of the reference peptide inducing 20% of expression of HLA-A*0201.
The experimental protocol, materials and methods correspond to those outlined in Example 4, with the only difference that the above mentioned antigenic peptides were used.
as §3, with “β2 m” for “β2m”

[5] = molecular target: T2, HLA-A*0201 molecule on human T2 cells (human); assay: T2 cell HLA-A*0201 binding assay, flow cytometry
T2 construct: MHC class I molecule on T2 cells; also called HLA.A2.01
Method: T2 cells (2.10⁵ cells per well) were incubated with decreasing concentrations of peptides from 100 μM to 0.1 μM in a AIMV medium supplemented with 100 ng/μl of human β2m at 37° C. for 16 hours.
The analysis was performed by FACS (Guava Easy Cyte). […] The relative affinity is then determined as follows:

[6] = ex vivo re-stimulation with IL13RA2-B pAg 10 μM
[7] = ex vivo re-stimulation with IL13RA2-H pAg 10 μM

FLPFGFILV (sequence variant) [SEQ ID NO: 18]
U87 cell lysis (in words) [1]: U87 cell lysis was observed | Percentage of ConA-induced response (mean+/-SEM), ELISPOT-IFNγ [2, 6]: 56.3% | Percentage of ConA-induced response (mean+/-SEM), ELISPOT-IFNγ [2, 7]: 32.3% | T cell responses in the ELISPOT-IFNγ assay (in words) ([2]; β/A2/DR3 mice, vaccination, compared to IL13RA2-H-vaccinated animals): induced improved T cell responses

WLPFGFILI (listed as Homo sapiens) [SEQ ID NO: 1, reference compound]
U87 cell lysis (in words) [1]: not | Percentage of ConA-induced response (mean+/-SEM), ELISPOT-IFNγ [2, 6]: 2.0% | Percentage of ConA-induced response (mean+/-SEM), ELISPOT-IFNγ [2, 7]: 1.1%

GAMLVGAVL (Sequence variant) [H2 Db B2, bacterial peptide from microbiota of C57BL/6 mice, variant of Stra6 peptide]
T cell responses in the ELISPOT-IFNγ assay (in words) [3]: induced improved T cell responses | T cell responses in the ELISPOT-IFNγ assay against the murine reference epitopes (in words) [3]: also induced improved T cell responses

KPSVFLLTL (Sequence variant) [H2 Ld B5, bacterial peptide from microbiota of BALB/c mice, variant of Phtf1 peptide]
T cell responses in the ELISPOT-IFNγ assay (in words) [3]: induced improved T cell responses | T cell responses in the ELISPOT-IFNγ assay against the murine reference epitopes (in words) [3]: also induced improved T cell responses

LMDLSTTPL (listed as Homo sapiens) [SEQ ID NO: 59, reference compound]
Concentration inducing 20% of expression of the HLA-A*0201 [4]: 12.6 µM | Binding to HLA-A*0201 (in words) ([4]; in vitro): bind | Mean fluorescence intensity ([4]; peptide at 3 μM): 0.9 | Mean fluorescence intensity ([4]; peptide at 25 μM): 65.4 | Mean fluorescence intensity ([4]; peptide at 100 μM): 77.6

B1: human IL13RA2 reference epitope IL13RA2-H (SEQ ID NO: 1, WLPFGFILI) (peptide)
peptide: WLPFGFILI
notes: 9-mer peptide derived from human IL13RA2; also called IL13RA2-H pAg
concentration inducing 20% of expression of HLA-A*0201 [5]: 100 µM

LMDLSTTEV (also called FOXM1-B2 pAg) [bacterial peptide FOXM1-B2 (SEQ ID NO: 75, LMDLSTTEV)]
concentration inducing 20% of expression of HLA-A*0201 [5]: 6.7 µM

B2: human FOXM1 reference epitope FOXM1-H2 (SEQ ID NO: 59, LMDLSTTPL) (peptide)
peptide: LMDLSTTPL
notes: 9-mer peptide derived from human FOXM1; also called FOXM1-H2 pAg
concentration inducing 20% of expression of HLA-A*0201 [5]: 12.6 µM

B3: bacterial peptide IL13RA2-B (SEQ ID NO: 18, FLPFGFILV) (peptide)
peptide: FLPFGFILV
notes: 9-mer synthetic peptide; also called IL13RA2-B pAg
concentration inducing 20% of expression of HLA-A*0201 [5]: 4.4 µM
